Assay in all cases: biochemical
Common to all, as to design: endogenous in cells; host or cells: K562 cell extract; species or system K562 (extract); replicate k of n = 2 (each experiment ID is one independent experiment; two experiment IDs per compound)
Conditions in all cases: read-out: KDapp

Experiment [1] has as its target T1, LATS1 (Homo sapiens, UniProt O95835).
T1 sequence (O95835 1-1130): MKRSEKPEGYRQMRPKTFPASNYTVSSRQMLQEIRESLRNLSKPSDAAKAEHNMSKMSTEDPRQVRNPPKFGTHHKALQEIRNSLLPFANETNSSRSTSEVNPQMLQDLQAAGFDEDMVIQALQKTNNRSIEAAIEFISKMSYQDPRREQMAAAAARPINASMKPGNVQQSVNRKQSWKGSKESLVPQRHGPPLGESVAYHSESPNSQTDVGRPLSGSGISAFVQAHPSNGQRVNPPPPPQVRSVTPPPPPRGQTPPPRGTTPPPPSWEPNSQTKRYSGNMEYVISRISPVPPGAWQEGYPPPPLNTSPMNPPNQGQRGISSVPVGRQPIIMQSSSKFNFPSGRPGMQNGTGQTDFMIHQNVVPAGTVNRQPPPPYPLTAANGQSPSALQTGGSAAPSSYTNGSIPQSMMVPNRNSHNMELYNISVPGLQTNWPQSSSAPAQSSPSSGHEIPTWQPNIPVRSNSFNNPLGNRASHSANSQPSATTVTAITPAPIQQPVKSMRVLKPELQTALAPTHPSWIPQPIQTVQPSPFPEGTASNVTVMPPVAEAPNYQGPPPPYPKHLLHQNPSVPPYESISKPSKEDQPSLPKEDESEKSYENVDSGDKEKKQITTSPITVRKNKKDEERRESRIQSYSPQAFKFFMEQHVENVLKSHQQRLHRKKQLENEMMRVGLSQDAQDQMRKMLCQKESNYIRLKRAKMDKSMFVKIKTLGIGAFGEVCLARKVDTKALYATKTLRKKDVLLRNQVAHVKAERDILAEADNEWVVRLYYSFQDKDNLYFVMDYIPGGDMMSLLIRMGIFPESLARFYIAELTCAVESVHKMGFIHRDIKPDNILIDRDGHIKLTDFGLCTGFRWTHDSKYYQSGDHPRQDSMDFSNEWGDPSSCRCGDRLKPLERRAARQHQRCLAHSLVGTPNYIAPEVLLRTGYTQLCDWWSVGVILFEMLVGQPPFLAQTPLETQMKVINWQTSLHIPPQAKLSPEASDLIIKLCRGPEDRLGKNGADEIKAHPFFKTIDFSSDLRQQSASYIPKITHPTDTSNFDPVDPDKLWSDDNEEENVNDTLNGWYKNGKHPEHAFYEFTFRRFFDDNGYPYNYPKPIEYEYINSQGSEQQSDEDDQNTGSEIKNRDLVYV

Experiment [2] addresses RIPK2 (Homo sapiens, UniProt O43353).
The target in experiment [3] is CHEK2 (Homo sapiens, UniProt O96017).
Chain of CHEK2 (O96017 whole entry): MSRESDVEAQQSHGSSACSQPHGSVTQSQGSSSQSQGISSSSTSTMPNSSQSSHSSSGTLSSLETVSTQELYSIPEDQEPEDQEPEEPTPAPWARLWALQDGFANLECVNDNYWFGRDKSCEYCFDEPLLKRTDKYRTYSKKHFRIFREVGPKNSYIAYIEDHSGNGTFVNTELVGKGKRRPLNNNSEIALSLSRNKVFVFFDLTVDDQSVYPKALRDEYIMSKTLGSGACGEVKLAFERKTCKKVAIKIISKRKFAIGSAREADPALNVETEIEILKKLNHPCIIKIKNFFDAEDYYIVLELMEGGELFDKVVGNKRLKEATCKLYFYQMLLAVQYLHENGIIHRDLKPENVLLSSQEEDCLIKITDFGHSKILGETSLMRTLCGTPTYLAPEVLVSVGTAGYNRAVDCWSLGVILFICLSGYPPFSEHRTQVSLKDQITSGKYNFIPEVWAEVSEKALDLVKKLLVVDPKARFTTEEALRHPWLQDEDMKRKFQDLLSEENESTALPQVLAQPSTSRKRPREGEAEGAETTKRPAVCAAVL
Experiment [4] concerns the target BUB1 (Homo sapiens, UniProt O43683).
Experiment [5] has as its target STK16 (Homo sapiens, UniProt O75716).
Experiment [6] has as its target T2, MAP3K3 (Homo sapiens, UniProt Q99759).
T2 sequence (Q99759 1-626): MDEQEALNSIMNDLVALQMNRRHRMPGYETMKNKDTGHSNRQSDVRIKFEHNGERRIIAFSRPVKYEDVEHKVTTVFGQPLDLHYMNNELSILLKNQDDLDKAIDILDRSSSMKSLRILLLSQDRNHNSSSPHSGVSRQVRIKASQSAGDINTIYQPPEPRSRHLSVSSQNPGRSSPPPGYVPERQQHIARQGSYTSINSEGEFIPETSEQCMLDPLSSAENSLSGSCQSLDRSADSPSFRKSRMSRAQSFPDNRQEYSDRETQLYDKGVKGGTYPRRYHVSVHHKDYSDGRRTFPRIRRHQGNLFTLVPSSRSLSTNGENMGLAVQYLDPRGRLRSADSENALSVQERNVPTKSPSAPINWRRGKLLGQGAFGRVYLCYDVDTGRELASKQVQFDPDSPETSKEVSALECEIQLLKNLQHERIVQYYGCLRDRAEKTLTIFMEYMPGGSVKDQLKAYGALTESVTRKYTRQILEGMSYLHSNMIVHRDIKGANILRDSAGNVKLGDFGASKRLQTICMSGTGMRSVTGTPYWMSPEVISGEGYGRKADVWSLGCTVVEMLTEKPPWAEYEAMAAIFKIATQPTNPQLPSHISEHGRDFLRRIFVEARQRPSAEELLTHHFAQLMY

pKd: −log10 of the molar value. Where “and” joins values, the source holds several entries; their conditions need not be identical. Identical values can stand only once.

Chain of BUB1 (O43683 whole entry): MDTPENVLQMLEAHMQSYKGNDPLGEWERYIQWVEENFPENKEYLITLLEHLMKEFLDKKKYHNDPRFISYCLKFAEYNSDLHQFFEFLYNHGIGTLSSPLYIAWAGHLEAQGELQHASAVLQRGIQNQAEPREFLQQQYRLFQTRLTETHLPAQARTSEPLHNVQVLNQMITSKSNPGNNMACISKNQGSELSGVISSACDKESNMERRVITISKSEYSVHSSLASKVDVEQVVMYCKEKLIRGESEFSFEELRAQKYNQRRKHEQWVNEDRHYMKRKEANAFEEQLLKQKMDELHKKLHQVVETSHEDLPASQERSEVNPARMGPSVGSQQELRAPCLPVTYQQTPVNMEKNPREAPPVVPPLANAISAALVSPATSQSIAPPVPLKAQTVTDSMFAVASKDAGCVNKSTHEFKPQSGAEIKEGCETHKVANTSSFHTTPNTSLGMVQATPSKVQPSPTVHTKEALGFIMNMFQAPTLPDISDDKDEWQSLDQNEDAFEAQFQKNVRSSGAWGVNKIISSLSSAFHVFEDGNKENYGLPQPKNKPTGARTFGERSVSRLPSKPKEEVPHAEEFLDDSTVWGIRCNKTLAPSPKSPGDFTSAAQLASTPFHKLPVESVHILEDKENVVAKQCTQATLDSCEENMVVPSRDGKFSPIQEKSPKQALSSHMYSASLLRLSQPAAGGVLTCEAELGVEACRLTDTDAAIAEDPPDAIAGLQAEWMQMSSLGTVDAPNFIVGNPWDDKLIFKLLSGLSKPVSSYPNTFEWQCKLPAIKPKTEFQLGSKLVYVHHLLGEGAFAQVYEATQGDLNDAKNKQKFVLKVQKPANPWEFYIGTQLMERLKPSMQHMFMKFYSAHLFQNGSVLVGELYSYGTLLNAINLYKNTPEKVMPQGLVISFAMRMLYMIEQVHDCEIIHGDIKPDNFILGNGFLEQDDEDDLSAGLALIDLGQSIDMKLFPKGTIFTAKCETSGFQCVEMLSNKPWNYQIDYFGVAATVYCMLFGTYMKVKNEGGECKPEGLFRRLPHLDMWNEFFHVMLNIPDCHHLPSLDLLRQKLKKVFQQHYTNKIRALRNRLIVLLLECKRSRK
Chain of STK16 (O75716 whole entry): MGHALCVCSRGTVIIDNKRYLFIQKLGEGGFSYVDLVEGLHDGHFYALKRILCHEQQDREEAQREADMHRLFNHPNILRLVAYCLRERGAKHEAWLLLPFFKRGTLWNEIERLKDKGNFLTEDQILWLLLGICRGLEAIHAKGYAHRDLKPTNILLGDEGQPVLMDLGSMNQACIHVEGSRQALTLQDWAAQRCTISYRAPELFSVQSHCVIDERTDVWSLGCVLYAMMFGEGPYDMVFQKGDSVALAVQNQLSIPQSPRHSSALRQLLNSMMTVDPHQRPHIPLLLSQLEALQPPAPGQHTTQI
Chain of RIPK2 (O43353 whole entry): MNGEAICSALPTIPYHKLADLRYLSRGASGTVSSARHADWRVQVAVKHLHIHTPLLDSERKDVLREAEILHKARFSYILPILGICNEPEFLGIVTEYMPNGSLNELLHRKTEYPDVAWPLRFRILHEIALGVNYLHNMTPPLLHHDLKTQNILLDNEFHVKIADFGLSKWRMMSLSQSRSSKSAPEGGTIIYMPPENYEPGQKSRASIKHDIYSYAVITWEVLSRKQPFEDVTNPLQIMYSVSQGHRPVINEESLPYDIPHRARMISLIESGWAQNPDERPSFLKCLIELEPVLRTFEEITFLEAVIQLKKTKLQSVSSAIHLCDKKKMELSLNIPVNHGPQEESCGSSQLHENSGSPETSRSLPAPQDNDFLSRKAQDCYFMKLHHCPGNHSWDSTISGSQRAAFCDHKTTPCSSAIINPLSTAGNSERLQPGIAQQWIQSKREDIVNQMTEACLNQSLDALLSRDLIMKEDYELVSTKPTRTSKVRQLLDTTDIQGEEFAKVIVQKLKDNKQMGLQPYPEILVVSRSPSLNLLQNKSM

With `CN1CCN(c2ccc(Nc3ncc(C#N)c(Nc4ccccc4C(N)=O)n3)cc2)CC1.Cl` [TCMDC-134116], the pKd in experiment [1] was 6.76; in experiment [2], 6.56; in experiment [3] it was 6.86; in experiment [4], 6.90 and 6.96; in experiment [5], 6.87 and 6.72; in experiment [6], 6.76.

With `Cl.NCC1(c2nc(-c3ccc(Cl)c(O)c3)c(-c3ccncc3)[nH]2)CCCCC1` [TCMDC-141154], the pKd is 6.04 in experiment [1]; 7.84 and 7.76 in experiment [2]; 7.08 and 7.23 in experiment [4].

Consider `CN(C)CC(O)COc1ccc(Nc2ncc([N+](=O)[O-])c(Nc3ccccc3O)n2)cc1.O=C(O)C(F)(F)F` (stereo not drawn) [TCMDC-141399], for which the pKd in experiment [3] was 5.04; in experiment [5] it was 6.26; in experiment [6], 5.47.

Source of the values: article PMC4774911, “Biochemical Screening of Five Protein Kinases from Plasmodium falciparum against 14,000 Cell-Active Compounds” (PLoS ONE, 2016).
